Values quoted from earlier work in article PMC5863515, “Re-evaluation of Adrenocorticotropic Hormone and Melanocyte Stimulating Hormone Activation of GPR139 in Vitro” (Frontiers in Pharmacology, 2018).

How the values were obtained:
GPR139 [1] = target: T1, GPR139 (Homo sapiens, UniProt Q6DWJ6); design: expressed in transfected cells; host or cells: CHO-TREx GPR139 clone#18; method as in Liu et al., 2015; settings: used for Cheng-Prussoff; ref Liu et al., 2015; read-out: Kd of [3H]JNJ-63533054; cited from earlier work
T1 sequence (Q6DWJ6 1-353): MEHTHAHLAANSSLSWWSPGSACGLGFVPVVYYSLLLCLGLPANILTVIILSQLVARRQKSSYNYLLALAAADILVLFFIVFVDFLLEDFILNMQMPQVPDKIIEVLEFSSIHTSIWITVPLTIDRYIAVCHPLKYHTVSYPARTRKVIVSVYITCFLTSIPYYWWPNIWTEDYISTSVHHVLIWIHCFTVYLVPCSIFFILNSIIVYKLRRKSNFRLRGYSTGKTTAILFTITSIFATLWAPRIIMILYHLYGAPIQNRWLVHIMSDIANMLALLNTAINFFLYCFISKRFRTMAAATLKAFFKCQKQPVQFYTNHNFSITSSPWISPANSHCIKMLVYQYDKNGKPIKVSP

GPR139 [2] = target: T1, GPR139; design: method as in Shehata et al. (2016); settings: ref Shehata et al. (2016); cited from earlier work
GPR139 [3] = target: T1, GPR139; design: method as in Liu et al., 2015; settings: ref Liu et al., 2015; cited from earlier work

| Compound | Kd (GPR139 [1]) [µM] | cAMP response (GPR139 [2]) | EC50 (GPR139 [3]) [µM] |
| --- | --- | --- | --- |
| C[C@H](NC(=O)CNC(=O)c1cccc(Cl)c1)c1ccccc1 [JNJ-63533054, 3-chloro-N-[2-oxo-2-[[(1S)-1-phenylethyl]amino]ethyl]benzamide] | 0.01 | unable to induce or inhibit a cAMP response |  |
| N[C@@H](Cc1c[nH]c2ccccc12)C(=O)O [L-Trp, L-tryptophan] |  |  | 30 to 300 |
| COc1cc(OC)cc(C(=O)NNC(=O)Nc2cccc3ccccc23)c1 [TC-O9311] |  | unable to induce or inhibit a cAMP response |  |
